From article PMC5798851, “The structure of FIV reverse transcriptase and its implications for non-nucleoside inhibitor resistance” (PLoS Pathogens, 2018)
Read-outs that look alike come from different tables or passages of the source.

Legend:
[1] = biological target: T1, mutant fRT (FIVm; R133S, K134I, A137E, G138T and R141I in FIV p51) (Feline immunodeficiency virus, UniProt P16088, A293E/G294T/K290I/R289S/R297I); experiment: Microscale thermophoresis (MST) NNRTI binding affinity to p51-loop mutant FIV RT
T1 construct: The p66 subunit (residues 1–554) was cloned into pET22b; p51 subunit (residues 1–430) in pET28b (kan resistance, Novagen) with a thrombin-cleavable His-tag at the N-terminus; His-tag (thrombin-cleavable) (N, cleaved yes); made in house; host or cells: E. coli ArcticExpress
Description: (§1) The two subunits of FIV RT (Petaluma) were subcloned into separate plasmids to facilitate site-specific mutagenesis. […] FIV RT mutant (FIVm) was generated by introducing the specific mutations into the p51 subunit using QuikChange Kit (Agilent Technologies Genomics). HIV-1 RT construct, containing p66 and protease coding regions in pT5M plasmid, was a generous gift of Prof. Stephen H. Hughes (National Cancer Institute- Frederick, MD, USA).
(§2) RT proteins were labeled with Monolith NT protein labeling kit BLUE-NHS (NanoTemper Technologies) and eluted in microscale thermophoresis (MST) buffer (50 mm Tris-HCl, pH 7.0, 300 mM NaCl and 0.05% Tween-20).

[2] = system: mutant fRT (FIVm; R133S, K134I, A137E, G138T and R141I in FIV p51); experiment: as above; design: species or system feline immunodeficiency virus (FIV); settings: MST; for binding affinity to mutated fRT as compared to HIV-1 RT: FIVm versus HIV-1 RT
Description: as §1, §2

HIV-1 RT [3] = biological target: T2, HIV-1 RT (Human immunodeficiency virus type 1 group M subtype B, UniProt P03366); experiment: biochemical; format: binding
T2 construct: HIV-1 RT construct, containing p66 and protease coding regions in pT5M plasmid; His-tag (implied by cobalt-resin purification); made in house; host or cells: E. coli BL21(DE3)

HIV-1 RT [4] = biological target: T2, HIV-1 RT; format: biochemical
Description: (§3) DNA-dependent DNA polymerization activity of RT enzymes was assessed using a DNA primer/template prepared by annealing of 70-mer ssDNA template with a complementary 25-mer ssDNA primer labeled with 6-FAM at 5’-end (Integrated DNA Technologies).
(§4) Reactions were incubated for 30 minutes at 37°C and stopped using urea sample loading buffer and heating at 95°C for 10 minutes. Reaction products were resolved using denaturing urea polyacrylamide gel electrophoresis (S5B Fig). Percentage RT activities represent percentile of band-intensities of polymerized product divided by those of template/primer substrate.

mutated fRT (FIVm) = biological target: T3, mutated fRT (FIVm) (Feline immunodeficiency virus, UniProt P16088, A293E/G294T/K290I/R289S/R297I); experiment: DNA-dependent DNA polymerization activity assay, mutant FIV RT; format: biochemical, feline immunodeficiency virus (FIV); settings: 0.15 μM RT, 30 minutes at 37°C
T3 construct: The p66 subunit (residues 1–554) was cloned into pET22b; p51 subunit (residues 1–430) in pET28b (kan resistance, Novagen) with a thrombin-cleavable His-tag at the N-terminus; His-tag (thrombin-cleavable) (N, cleaved yes); made in house; host or cells: E. coli ArcticExpress
Description: as §3
as §4, with “Reaction mixtures contained 100 mM Tris-HCl pH 7.5, 75 mM KCl, 0.5 mM dNTP mixture, 60 mM MgCl2, 5 mM DTT and 0.15 μM RT, 0.5 μM DNA substrate. Reactions” for “Reactions”

FIV RT (fRT) = biological target: T4, FIV RT (fRT) (Feline immunodeficiency virus, UniProt P16088); experiment: Microscale thermophoresis (MST) NNRTI binding affinity to wild type FIV RT
T4 construct: The p66 subunit (residues 1–554) was cloned into pET22b; p51 subunit (residues 1–430) in pET28b (kan resistance, Novagen) with a thrombin-cleavable His-tag at the N-terminus; His-tag (thrombin-cleavable) (N, cleaved yes); made in house; host or cells: E. coli ArcticExpress
Description: as §2

Row | SMILES | Kd [1] | binding affinity to mutated fRT as compared to HIV-1 RT [2] | Kd (HIV-1 RT [3]) | inhibition of HIV-1 RT DNA polymerization activity (in words) (HIV-1 RT [4]) | effect on DNA polymerization activity of the mutated fRT (in words) (mutated fRT (FIVm)) | binding to fRT (in words) (FIV RT (fRT)) | binding affinity to mutated fRT as compared to fRT ([2]; FIVm versus wild type fRT) | Kd (HIV-1 RT [3]; MST, mean ±SD, read-out: Kd, binding to HIV-1 RT) | inhibition of HIV-1 RT DNA polymerization activity (in words) (HIV-1 RT [4]; 0.15 μM RT, 30 minutes at 37°C) | Kd (FIV RT (fRT); mean ±SD)
1 | CC(C)Nc1cccnc1N1CCN(C(=O)c2cc3cc(NS(C)(=O)=O)ccc3[nH]2)CC1 [DLV, Delavirdine] | 227 ± 71 nM | twice the affinity | 617 ± 100 nM | potently inhibiting | none of the three inhibitors EFZ, DLV or RPV reduced the activity | fail to bind | – | – | – | –
2 | O=C1Nc2ccc(Cl)cc2[C@@](C#CC2CC2)(C(F)(F)F)O1 [EFZ, Efavirenz] | – | comparable affinities | – | – | none of the three inhibitors EFZ, DLV or RPV reduced the activity | fail to bind | – | – | – | –
3 | Cc1cc(/C=C/C#N)cc(C)c1Nc1ccnc(Nc2ccc(C#N)cc2)n1 [RPV, Rilpivirine] | 368 ± 60 nM | comparable affinities | – | – | none of the three inhibitors EFZ, DLV or RPV reduced the activity | able to bind to fRT with comparable affinity to HIV-1 RT | twice the affinity | 539 ± 25 nM | potently inhibiting | 796 ± 76 nM
